Assay results as given in patent US9200269B2, “β-glucuronidase inhibitor” (priority 2007, dated 2015).

How the values were obtained:
[1] = target: T1, β-glucuronidase Type VII-A derived from Escherichia coli (Escherichia coli, UniProt P05804); experiment: Inhibition of β-glucuronidase activity (PNPG substrate, absorbance at 400 nm); format: biochemical; details: 1.6 units/mL enzyme, 37° C., 2 hours, pH 6.8
T1 construct: purchased Sigma-Aldrich Corporation
Protocol: 100 μL of a 2 mM PNPG aqueous solution, 40 μL of a 0.5 M phosphate buffer (pH 6.8), 38 μL of ion exchanged water and 2 μL of a 10 or 1 wt % dipropylene glycol (DPG) solution of various compounds or plant extracts were mixed in a bottle γ-ray sterilized in advance, and subsequently 20 μL of a β-glucuronidase aqueous solution adjusted to 16 units/mL was added, in order to allow the enzyme to react in a thermostat bath at 37° C. for 2 hours. Further, in the case of some of compounds, in addition to the above steps, the same experiment was performed using a 0.1 wt % DPG solution as well. As a result, the concentrations of the test compounds and plant extracts in the reaction solution were adjusted to 0.1, 0.01 and 0.001 wt %, respectively. Further, a product prepared by adding DPG in place of the above-mentioned compounds and plant extracts was used as a control, and a product prepared by adding ion exchanged water in place of an enzyme solution was used as a blank for each sample and control, and the respective products were allowed to react for 2 hours in the same manner. It should be noted that the plant extract sample was used as a solvent extract.
The above-mentioned reaction solution was diluted with a 0.2 M glycine buffer (pH 10.4) and measured for its absorbance at a wavelength of 400 nm. The relative activity inhibition rate of a β-glucuronidase was determined by using the obtained measurement value in accordance with the following equation. Absorbance change of control=Absorbance of control−Absorbance of blank for each control Absorbance change of sample=Absorbance of sample−Absorbance of blank for each sample Activity inhibition rate (%)=[(Absorbance change of control−Absorbance change of sample)/Absorbance change of control]×100

[2] = tested on: β-glucuronidase activity derived from microbial cells grown in the putrefied urine; experiment: Inhibition of β-glucuronidase activity derived from urine putrefying microbial cell (putrefied urine supernatant, PNPG); format: biochemical; details: 0.01 wt % in reaction solution; room temperature, 24 hours
Protocol: A putrefied urine product, which was prepared by collecting 20 mL of a urine sample, dispensing the sample in a bottle which had been preliminarily subjected to γ-ray sterilization without performing any microbe removing operation and storing the resultant at room temperature for 7 days, was used. 1 mL of the putrefied urine was centrifuged at 10,000 rpm for 5 minutes, and separated into a microbial cell and a supernatant. The precipitated microbial cell was suspended in 0.5 mL of saline. The supernatant was subjected to sterilizing through a 0.2-μm filter.
250 μL of a 2 mM PNPG aqueous solution, 100 μL of a 0.5 M phosphate buffer (pH 6.8), […] of a 10 wt % 8-cyclohexadecen-1-one DPG solution and 100 μL of ion exchanged water were mixed in a bottle γ-ray sterilized in advance, and subsequently 50 μL of the putrefied urine supernatant sample in Reference Example 3 were added. The mixture was allowed to react at room temperature. […]
The above-mentioned reaction solution immediately after the start of the reaction and after 24 hours of reaction was diluted with a 0.2 M glycine buffer (pH 10.4) and measured for its absorbance at a wavelength of 400 nm. A value obtained by subtracting the absorbance immediately after the start from the absorbance after 24 hours of reaction was used as an index of a β-glucuronidase activity.

T1 sequence (P05804 whole entry): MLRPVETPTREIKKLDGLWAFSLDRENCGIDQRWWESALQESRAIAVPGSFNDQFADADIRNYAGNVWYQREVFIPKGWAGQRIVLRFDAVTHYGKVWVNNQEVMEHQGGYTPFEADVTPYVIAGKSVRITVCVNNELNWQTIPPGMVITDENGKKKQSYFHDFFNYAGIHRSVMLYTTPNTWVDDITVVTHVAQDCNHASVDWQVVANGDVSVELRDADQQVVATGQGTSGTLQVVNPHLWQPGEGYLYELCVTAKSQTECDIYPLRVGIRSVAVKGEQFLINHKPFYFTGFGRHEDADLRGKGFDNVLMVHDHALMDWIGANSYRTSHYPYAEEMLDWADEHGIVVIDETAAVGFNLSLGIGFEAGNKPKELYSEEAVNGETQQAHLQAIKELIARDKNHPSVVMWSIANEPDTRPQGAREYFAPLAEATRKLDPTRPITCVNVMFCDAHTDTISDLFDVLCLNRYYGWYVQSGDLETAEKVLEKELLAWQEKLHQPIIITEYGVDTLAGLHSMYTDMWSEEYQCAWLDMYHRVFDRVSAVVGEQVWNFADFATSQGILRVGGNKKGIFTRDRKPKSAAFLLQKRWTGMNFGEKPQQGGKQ

Compound: O=C1CCCCCCC=CCCCCCCC1 [8-Cyclohexadecen-1-one, 8-cyclohexadecen-1-one]
- Inhibition rate (%) Concentration 0.001% ([1]; 0.001 wt % in reaction solution): 95.8%
- inhibition at 0.01 wt % ([1]; 0.01 wt % in reaction solution, read-out: Inhibition rate (%) Concentration 0.01%): 99.9%
- inhibition at 0.1 wt % ([1]; 0.1 wt % in reaction solution, read-out: Inhibition rate (%) Concentration 0.1%): 100%
- β-glucuronidase activity of putrefied urine supernatant (result in words, FIG. 4) [2]: suppressed the β-glucuronidase activity
